Measured values published in the NIST ThermoML archive (doi:10.1021/acs.jced.7b00520).

Key:
[1] = mn = molality of the nth substance listed, in mol/kg; conditions: 101.3 kPa, Liquid; for viscosity: Capillary tube (Ostwald / Ubbelohde) method; for mass density: Vibrating tube method
[2] = 101.3 kPa, Liquid, Capillary tube (Ostwald / Ubbelohde) method

[Cl-].[Cl-].[Mg+2] [magnesium chloride] + O
[1]
Conditions	mass density, m1 = 0.09999 [kg/m3]	mass density, m1 = 0.25 [kg/m3]	mass density, m1 = 0.5 [kg/m3]	mass density, m1 = 0.7499 [kg/m3]	mass density, m1 = 0.9999 [kg/m3]	viscosity, m1 = 0.0999 [mPa·s]	viscosity, m1 = 0.25 [mPa·s]	viscosity, m1 = 0.5 [mPa·s]	viscosity, m1 = 0.7499 [mPa·s]	viscosity, m1 = 0.9999 [mPa·s]
288.15 K	1006.87	1017.79	1034.95	1050.84	1065.46	1.21	1.25	1.355	1.445	1.534
298.15 K	1004.61	1015.32	1032.22	1048.21	1062.64	0.934	0.981	1.072	1.147	1.214
308.15 K	1001.62	1012.53	1029.55	1045.26	1059.4	0.751	0.794	0.862	0.934	1.01
318.15 K	997.848	1008.92	1026.01	1041.4	1055.25	0.624	0.659	0.715	0.762	0.814

O [water]
[2]
Conditions	viscosity [mPa·s]
288.15 K	1.138
298.15 K	0.89
308.15 K	0.719
318.15 K	0.596
